From patent publication US20090131431A1, “Pyrazolo[3,4-b]pyridine compounds, and their use as a PDE4 inhibitors” (priority 2005, published 2009)

These compounds were tested against T1, PDE4B (human recombinant) (Homo sapiens, UniProt Q07343) (assay: Inhibition of PDE4B activity: SPA and/or Fluorescence Polarisation (FP) assay). Details: one reading (n=1) or average of 2 or more readings, read-out: PDE4B pIC50 (±about 0.5) (converted).
T1 construct: made in house
Type: biochemical
Procedure: The ability of compounds to inhibit catalytic activity at PDE4B or 4D (human recombinant), PDE3 (from bovine aorta), PDE5 (human recombinant) or PDE6 (from bovine retina) can optionally be determined by Scintillation Proximity Assay (SPA) in a 96-well format.
The enzyme concentration is adjusted so that no more than 20% hydrolysis of the substrate defined below occurs in control wells without compound, during the incubation. For the PDE3, PDE4B and PDE4D assays, [5′,8-3H]Adenosine 3′,5′-cyclic phosphate (Amersham Pharmacia Biotech, code TRK.559; or Amersham Biosciences UK Ltd, Pollards Wood, Chalfont St Giles, Buckinghamshire HP8 4SP, UK) is added to give 0.05 uCi per well and about 10 nM final concentration. […] Plates containing assay mixture, suitably approx. 100 ul volume of assay mixture, are mixed on an orbital shaker for 5 minutes and incubated at ambient temperature for 1 hour. Phosphodiesterase SPA beads (Amersham Pharmacia Biotech, code RPNQ 0150) are added (about 1 mg per well) to terminate the assay. Plates are sealed and shaken and allowed to stand at ambient temperature for 35 minutes to 1 hour (suitably 35 minutes) to allow the beads to settle. […] Curves are analysed using ActivityBase and XLfit (ID Business Solutions Limited, 2 Ocean Court, Surrey Research Park, Guildford, Surrey GU2 7QB, United Kingdom). Results are expressed as pIC50 values.
The ability of compounds to inhibit catalytic activity at PDE4B (human recombinant) or PDE4D (human recombinant) can optionally be determined by IMAP Fluorescence Polarisation (FP) assay (IMAP Explorer kit, available from Molecular Devices Corporation, Sunnydale, Calif., USA; Molecular Devices code: R8062) in 384-well format.
The IMAP FP assay is able to measure PDE activity in an homogenous, non-radioactive assay format. The FP assay uses the ability of immobilised trivalent metal cations, coated onto nanoparticles (tiny beads), to bind the phosphate group of Fl-AMP that is produced on the hydrolysis of fluorescein-labelled (Fl) cyclic adenosine mono-phosphate (Fl-cAMP) to the non-cyclic Fl-AMP form. […] Binding of Fl-AMP product to the beads (coated with the immobilised trivalent cations) slows the rotation of the bound Fl-AMP and leads to an increase in the fluorescence polarisation ratio of parallel to perpendicular light. Inhibition of the PDE reduces/inhibits this signal increase.
The enzyme level is set by experimentation so that reaction is linear throughout the incubation. Fluorescein adenosine 3′,5′-cyclic phosphate (from Molecular Devices Corporation, Molecular Devices code: R7091) is added to give about 40 nM final concentration (final assay volume usually ca. 20-40 ul, suitably ca. 20 ul). Plates are mixed on an orbital shaker for 10 seconds and incubated at ambient temperature for 40 minutes. IMAP binding reagent (as described above, from Molecular Devices Corporation, Molecular Devices code: R7207) is added (60 ul of a 1 in 400 dilution in binding buffer of the kit stock solution) to terminate the assay. Plates are allowed to stand at ambient temperature for 1 hour. The Fluorescence Polarisation (FP) ratio of parallel to perpendicular light is measured using an Analyst™ plate reader (from Molecular Devices Corporation). […] Curves are analysed using ActivityBase and XLfit (ID Business Solutions Limited, 2 Ocean Court, Surrey Research Park, Guildford, Surrey GU2 7QB, United Kingdom). Results are expressed as plC50 values.

T1 sequence (Q07343 1-564 isoform Q07343-2): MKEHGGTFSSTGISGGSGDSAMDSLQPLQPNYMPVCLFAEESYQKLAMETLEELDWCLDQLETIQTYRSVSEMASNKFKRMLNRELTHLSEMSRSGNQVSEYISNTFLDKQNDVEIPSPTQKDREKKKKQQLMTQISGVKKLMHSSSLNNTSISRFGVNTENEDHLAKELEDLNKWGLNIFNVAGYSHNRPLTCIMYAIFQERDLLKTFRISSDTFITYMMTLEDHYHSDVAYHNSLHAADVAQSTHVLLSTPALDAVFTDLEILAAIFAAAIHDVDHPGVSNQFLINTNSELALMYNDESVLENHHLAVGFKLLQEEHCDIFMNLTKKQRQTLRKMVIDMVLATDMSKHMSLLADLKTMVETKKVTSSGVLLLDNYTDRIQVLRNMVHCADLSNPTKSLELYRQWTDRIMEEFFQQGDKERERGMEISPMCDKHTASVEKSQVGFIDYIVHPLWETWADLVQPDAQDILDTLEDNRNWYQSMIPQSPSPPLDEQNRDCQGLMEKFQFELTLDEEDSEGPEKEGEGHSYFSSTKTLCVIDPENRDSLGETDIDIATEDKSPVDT

| SMILES | IC50 |
| --- | --- |
| CCn1ncc2c(NC3CCOCC3)c(CNC(=O)c3ccc(N(C)C)cc3)cnc21 [Example 88, 4-(dimethylamino)-N-{[1-ethyl-4-(tetrahydro-2H-pyran-4-ylamino)-1H-pyrazolo[3,4-b]pyridin-5-yl]methyl}benzamide] | 126 to 1000 pM |
| CCn1ncc2c(NC3CCOCC3)c(CNC(=O)c3ccc(NC(C)=O)cc3)c(C)nc21 [Example 93, 4-(acetylamino)-N-{[1-ethyl-6-methyl-4-(tetrahydro-2H-pyran-4-ylamino)-1H-pyrazolo[3,4-b]pyridin-5-yl]methyl}benzamide] | 126 to 1000 pM |
| CCn1ncc2c(NC3CCOCC3)c(CNS(=O)(=O)c3cccs3)c(C)nc21 [Example 108, N-{[1-ethyl-6-methyl-4-(tetrahydro-2H-pyran-4-ylamino)-1H-pyrazolo[3,4-b]pyridin-5-yl]methyl}-2-thiophenesulfonamide] | 126 to 1000 pM |
| CCn1ncc2c(NC3CCOCC3)c(CNC(=O)c3ccc(N4CCCCC4)cc3)c(C)nc21 [Example 116, N-{[1-ethyl-6-methyl-4-(tetrahydro-2H-pyran-4-ylamino)-1H-pyrazolo[3,4-b]pyridin-5-yl]methyl}-4-(1-piperidinyl)benzamide] | 10 to 100 pM |
| CCn1ncc2c(NC3CCOCC3)c(CNC(=O)c3cccc(N(C)C)c3)cnc21 [Example 120, 3-(dimethylamino)-N-{[1-ethyl-4-(tetrahydro-2H-pyran-4-ylamino)-1H-pyrazolo[3,4-b]pyridin-5-yl]methyl}benzamide] | 126 to 1000 pM |
| CCn1ncc2c(NC3CCOCC3)c(CNC(=O)c3ccc(S(C)(=O)=O)cc3)c(C)nc21 [Example 124, N-{[1-ethyl-6-methyl-4-(tetrahydro-2H-pyran-4-ylamino)-1H-pyrazolo[3,4-b]pyridin-5-yl]methyl}-4-(methylsulfonyl)benzamide] | 126 to 1000 pM |
| CCn1ncc2c(NC3CCOCC3)c(CNC(=O)c3cccnc3)c(C)nc21 [Example 125, N-{[1-ethyl-6-methyl-4-(tetrahydro-2H-pyran-4-ylamino)-1H-pyrazolo[3,4-b]pyridin-5-yl]methyl}-3-pyridinecarboxamide] | 126 to 1000 pM |
| CCc1nc2c(cnn2CC)c(NC2CCOCC2)c1CNC(=O)c1ccc(-n2cccc2)nc1 [Example 148, N-{[1,6-diethyl-4-(tetrahydro-2H-pyran-4-ylamino)-1H-pyrazolo[3,4-b]pyridin-5-yl]methyl}-6-(1H-pyrrol-1-yl)-3-pyridinecarboxamide] | 10 to 100 pM |
| CCc1nc2c(cnn2CC)c(NC2CCOCC2)c1CNC(=O)c1cccc(N2CCCC2=O)c1 [Example 149, N-{[1,6-diethyl-4-(tetrahydro-2H-pyran-4-ylamino)-1H-pyrazolo[3,4-b]pyridin-5-yl]methyl}-3-(2-oxo-1-pyrrolidinyl)benzamide] | 10 to 100 pM |
| CCc1nc2c(cnn2CC)c(NC2CCOCC2)c1CNC(=O)C1CCCO1 (centres unmarked) [Example 156, N-{[1,6-diethyl-4-(tetrahydro-2H-pyran-4-ylamino)-1H-pyrazolo[3,4-b]pyridin-5-yl]methyl}tetrahydro-2-furancarboxamide] | 126 to 1000 pM |
| CCc1nc2c(cnn2CC)c(NC2CCOCC2)c1CNC(=O)c1cccc2c1OCC2 [Example 161, N-{[1,6-diethyl-4-(tetrahydro-2H-pyran-4-ylamino)-1H-pyrazolo[3,4-b]pyridin-5-yl]methyl}-2,3-dihydro-1-benzofuran-7-carboxamide] | 10 to 100 pM |
| CCc1nc2c(cnn2CC)c(NC2CCOCC2)c1CNS(=O)(=O)Cc1ccccc1 [Example 169, N-{[1,6-diethyl-4-(tetrahydro-2H-pyran-4-ylamino)-1H-pyrazolo[3,4-b]pyridin-5-yl]methyl}-1-phenylmethanesulfonamide] | 126 to 1000 pM |
| CCc1nc2c(cnn2CC)c(NC2CCOCC2)c1CNS(=O)(=O)C(C)C [Example 173, N-{[1,6-diethyl-4-(tetrahydro-2H-pyran-4-ylamino)-1H-pyrazolo[3,4-b]pyridin-5-yl]methyl}-2-propanesulfonamide] | 126 to 1000 pM |
| CCc1nc2c(cnn2CC)c(NC2CCOCC2)c1CNC(=O)c1ccc(N2CCCCC2)cc1 [Example 175, N-{[1,6-diethyl-4-(tetrahydro-2H-pyran-4-ylamino)-1H-pyrazolo[3,4-b]pyridin-5-yl]methyl}-4-(1-piperidinyl)benzamide] | 10 to 100 pM |

Continued, values first:

| IC50 | SMILES |
| --- | --- |
| 126 to 1000 pM | CCc1nc2c(cnn2CC)c(NC2CCOCC2)c1CNC(=O)c1cnccn1 [Example 146, N-{[1,6-diethyl-4-(tetrahydro-2H-pyran-4-ylamino)-1H-pyrazolo[3,4-b]pyridin-5-yl]methyl}-2-pyrazinecarboxamide] |
| 10 to 100 pM | CCc1nc2c(cnn2CC)c(NC2CCOCC2)c1CNC(=O)c1cccc(NC(C)=O)c1 [Example 147, 3-(acetylamino)-N-{[1,6-diethyl-4-(tetrahydro-2H-pyran-4-ylamino)-1H-pyrazolo[3,4-b]pyridin-5-yl]methyl}benzamide] |
| 126 to 1000 pM | CCc1nc2c(cnn2CC)c(NC2CCOCC2)c1CNC(=O)c1ccnnc1 [Example 150, N-{[1,6-diethyl-4-(tetrahydro-2H-pyran-4-ylamino)-1H-pyrazolo[3,4-b]pyridin-5-yl]methyl}-4-pyridazinecarboxamide] |
| 126 to 1000 pM | CCc1nc2c(cnn2CC)c(NC2CCOCC2)c1CNC(=O)c1cncnc1 [Example 151, N-{[1,6-diethyl-4-(tetrahydro-2H-pyran-4-ylamino)-1H-pyrazolo[3,4-b]pyridin-5-yl]methyl}-5-pyrimidinecarboxamide] |
| 10 to 100 pM | CCc1nc2c(cnn2CC)c(NC2CCOCC2)c1CNC(=O)c1ccco1 [Example 153, N-{[1,6-diethyl-4-(tetrahydro-2H-pyran-4-ylamino)-1H-pyrazolo[3,4-b]pyridin-5-yl]methyl}-2-furancarboxamide] |
| 126 to 1000 pM | CCc1nc2c(cnn2CC)c(NC2CCOCC2)c1CNC(=O)c1ccoc1 [Example 154, N-{[1,6-diethyl-4-(tetrahydro-2H-pyran-4-ylamino)-1H-pyrazolo[3,4-b]pyridin-5-yl]methyl}-3-furancarboxamide] |
| 126 to 1000 pM | CCc1nc2c(cnn2CC)c(NC2CCOCC2)c1CNC(=O)c1nc(C)oc1C(F)(F)F [Example 155, N-{[1,6-diethyl-4-(tetrahydro-2H-pyran-4-ylamino)-1H-pyrazolo[3,4-b]pyridin-5-yl]methyl}-2-methyl-5-(trifluoromethyl)-1,3-oxazole-4-carboxamide] |
| 10 to 100 pM | CCc1nc2c(cnn2CC)c(NC2CCOCC2)c1CNC(=O)c1ccc(NC(C)=O)cc1OC [Example 157, 4-(acetylamino)-N-{[1,6-diethyl-4-(tetrahydro-2H-pyran-4-ylamino)-1H-pyrazolo[3,4-b]pyridin-5-yl]methyl}-2-(methyloxy)benzamide] |
| 126 to 1000 pM | CCc1nc2c(cnn2CC)c(NC2CCOCC2)c1CNC(=O)c1ccnn1C [Example 158, N-{[1,6-diethyl-4-(tetrahydro-2H-pyran-4-ylamino)-1H-pyrazolo[3,4-b]pyridin-5-yl]methyl}-1-methyl-1H-pyrazole-5-carboxamide] |
| 10 to 100 pM | CCOc1ncccc1C(=O)NCc1c(CC)nc2c(cnn2CC)c1NC1CCOCC1 [Example 159, N-{[1,6-diethyl-4-(tetrahydro-2H-pyran-4-ylamino)-1H-pyrazolo[3,4-b]pyridin-5-yl]methyl}-2-(ethyloxy)-3-pyridinecarboxamide] |
| 10 to 100 pM | CCOc1ccccc1C(=O)NCc1c(CC)nc2c(cnn2CC)c1NC1CCOCC1 [Example 160, N-{[1,6-diethyl-4-(tetrahydro-2H-pyran-4-ylamino)-1H-pyrazolo[3,4-b]pyridin-5-yl]methyl}-2-(ethyloxy)benzamide] |
| 10 to 100 pM | CCc1nc2c(cnn2CC)c(NC2CCOCC2)c1CNC(=O)c1nc2ccc(Cl)cc2nc1OC [Example 174, 6-chloro-N-{[1,6-diethyl-4-(tetrahydro-2H-pyran-4-ylamino)-1H-pyrazolo[3,4-b]pyridin-5-yl]methyl}-3-(methyloxy)-2-quinoxalinecarboxamide] |
